Results reported in patent US10119168B2, “Methods for the treatment of kidney fibrosis” (priority 2014, dated 2018).

System: mouse kidney
Assay: RNA-seq of kidney gene expression over time in FA nephropathy progression (Table 1)
Type: in vivo
Source text: Identification of Candidate Genes for Biomarkers of Kidney Fibrosis Through RNA-Seq. […] To select genes that are indicative of fibrosis candidates were considered from this later group that had robust upregulation (>5-fold with >100 read counts at peak) over time as fibrosis progresses. Another important criteria was the location of the protein product of the gene, either in extracellular matrix or transmembrane, to increase the chance of detecting it in the urine and use it as a biomarker(11).
(§1) RNA samples (n=3 mice/time point) were sequenced at the Bioplymers Facility at the Harvard Medical School. Libraries were prepared from 10 ng total RNA per sample using the IntegenX Apollo 324 system and NuGEN SPIA reagents. Libraries were multiplexed in groups of three per lane of a flowcell and 50 cycle, paired-end sequencing was performed on an Illumina HiSeq2000 instrument. Illumina sequence quality was surveyed with FastQC (available on the world wide web at bioinformatics.babraham.ac.uk/projects/fastqc/) to ensure suitability of library generation and sequencing for further analysis. Adapters and lower quality bases were trimmed with Cutadapt (available on the world wide web at code.google.com/p/cutadapt/), using a Phred quality cutoff of 20, and reassessed with FastQC. Trimmed reads were aligned to the Ensembl NCBIM37 Mus musculus genome build with TopHat2. Aligned reads were summarized at the gene level against the Illumina iGenomes (available on the world wide web at tophat.cbcb.umd.edu/igenomes.html) NCBIM37 Mus musculus gene annotations using HTSeq (available on the world wide web at huber.embl.de/users/anders/HTSeq/doc/overview.html). […] The full dataset is available in the NCBI GEO database with the accession number GSE65267. Raw data is accessible on the world wide web at ncbi.nlm.nih.gov/geo/query/acc.cgi?acc=GSE65267.
Mice were sacrificed at 1, 2, 3, 7 and 14 days following administration. […] All mice were sacrificed at 14 days.
as §1, with “The quantity and quality of mRNA” for “RNA samples (n=3 mice/time point)”, “assayed on an Agilent 2200 TapeStation instrument and by SYBR qPCR assay.” for “sequenced at the Bioplymers Facility at the Harvard Medical School.”, “(https://code.google.com/p/cutadapt/),” for “(available on the world wide web at code.google.com/p/cutadapt/),”

Nc1nc2ncc(CNc3ccc(C(=O)N[C@@H](CCC(=O)O)C(=O)O)cc3)nc2c(=O)[nH]1 [FA, folic acid]
Sycn mean fold change from normal (Day 3): 0.07 fold | Synpr mean fold change from normal (Day 3): 0.01 fold | Sytl2 mean fold change from normal (Day 3): 8.20 fold | Tagln2 mean fold change from normal (Day 3): 4.86 fold | Tbx10 mean fold change from normal (Day 3): 0.08 fold | Timd2 mean fold change from normal (Day 3): 1.47 fold | Timp1 mean fold change from normal (Day 3): 60.56 fold | Tlr2 mean fold change from normal (Day 3): 34.62 fold | Tmem25 mean fold change from normal (Day 3): 0.39 fold | Tmem26 mean fold change from normal (Day 3): 0.16 fold | Tmem207 mean fold change from normal (Day 3): 0.14 fold | Tmsb10 mean fold change from normal (Day 3): 9.84 fold | Tnc mean fold change from normal (Day 3): 9.00 fold | Tnfaip3 mean fold change from normal (Day 3): 6.38 fold | Tnfrsf23 mean fold change from normal (Day 3): 5.65 fold | Top2a mean fold change from normal (Day 3): 10.49 fold | Tpx2 mean fold change from normal (Day 3): 7.65 fold | Tril mean fold change from normal (Day 3): 0.69 fold | Tsc22d1 mean fold change from normal (Day 3): 4.34 fold | Ttc36 mean fold change from normal (Day 3): 0.34 fold | Ttr mean fold change from normal (Day 3): 0.15 fold | Tyrobp mean fold change from normal (Day 3): 4.90 fold | Ugt3a1 mean fold change from normal (Day 3): 0.17 fold | Uhrf1 mean fold change from normal (Day 3): 12.11 fold | Upp2 mean fold change from normal (Day 3): 0.21 fold | Vcam1 mean fold change from normal (Day 3): 121.91 fold | Vill mean fold change from normal (Day 3): 0.18 fold | Vmn1r18 mean fold change from normal (Day 3): 0.14 fold | Vmn1r19 mean fold change from normal (Day 3): 0.52 fold | Vmn1r20 mean fold change from normal (Day 3): 0.31 fold | Vmn1r-ps11 mean fold change from normal (Day 3): 0.73 fold | Vstm2a mean fold change from normal (Day 3): 0.04 fold | Vtcn1 mean fold change from normal (Day 3): 28.37 fold | Vwce mean fold change from normal (Day 3): 0.42 fold | Wfdc15b mean fold change from normal (Day 3): 0.06 fold | Ybx2 mean fold change from normal (Day 3): 0.18 fold | 7SK RNA mean fold change from normal (Day 7): 0.08 fold | 2310042D19Rik mean fold change from normal (Day 7): 0.46 fold | 4930533I22Rik mean fold change from normal (Day 7): 0.25 fold | 4933417A18Rik mean fold change from normal (Day 7): 0.41 fold | 8430408G22Rik mean fold change from normal (Day 7): 1.23 fold | 9030619P08Rik mean fold change from normal (Day 7): 0.03 fold | Slc2a5 mean fold change from normal (Day 7): 0.25 fold | Slc4a1 mean fold change from normal (Day 7): 0.35 fold | Slc5a4a mean fold change from normal (Day 7): 0.17 fold | Slc5a12 mean fold change from normal (Day 7): 0.35 fold | Slc6a12 mean fold change from normal (Day 7): 0.12 fold | Slc7a13 mean fold change from normal (Day 7): 0.10 fold | Slc28a1 mean fold change from normal (Day 7): 0.44 fold | Slc34a1 mean fold change from normal (Day 7): 0.30 fold | Slc34a2 mean fold change from normal (Day 7): 7.02 fold | Slc34a3 mean fold change from normal (Day 7): 0.20 fold | Slc46a3 mean fold change from normal (Day 7): 0.31 fold | Slco1a1 mean fold change from normal (Day 7): 0.12 fold | Smoc2 mean fold change from normal (Day 7): 4.22 fold | Smpdl3b mean fold change from normal (Day 7): 38.83 fold | Snx31 mean fold change from normal (Day 7): 0.07 fold | Socs1 mean fold change from normal (Day 7): 34.95 fold | Sox4 mean fold change from normal (Day 7): 11.09 fold | Sox9 mean fold change from normal (Day 7): 30.72 fold | Spaca7 mean fold change from normal (Day 7): 30.89 fold | Spink6 mean fold change from normal (Day 7): 5.47 fold | Spp1 mean fold change from normal (Day 7): 37.70 fold | Spred3 mean fold change from normal (Day 7): 3.82 fold | Spsb1 mean fold change from normal (Day 7): 8.93 fold | Spt1c3 mean fold change from normal (Day 7): 1.25 fold | St8sia2 mean fold change from normal (Day 7): 26.47 fold | Stil mean fold change from normal (Day 7): 3.57 fold | Stk32a mean fold change from normal (Day 7): 2.72 fold | Stra6 mean fold change from normal (Day 7): 22.31 fold | Susd2 mean fold change from normal (Day 7): 0.28 fold | Sycn mean fold change from normal (Day 7): 0.07 fold | Synpr mean fold change from normal (Day 7): 0.01 fold | Sytl2 mean fold change from normal (Day 7): 11.81 fold | Tagln2 mean fold change from normal (Day 7): 4.01 fold | Tbx10 mean fold change from normal (Day 7): 0.03 fold | Timd2 mean fold change from normal (Day 7): 0.68 fold | Timp1 mean fold change from normal (Day 7): 67.32 fold | Tlr2 mean fold change from normal (Day 7): 15.78 fold | Tmem25 mean fold change from normal (Day 7): 0.53 fold | Tmem26 mean fold change from normal (Day 7): 0.16 fold | Tmem207 mean fold change from normal (Day 7): 0.35 fold | Tmsb10 mean fold change from normal (Day 7): 9.28 fold | Tnc mean fold change from normal (Day 7): 16.74 fold | Tnfaip3 mean fold change from normal (Day 7): 8.79 fold | Tnfrsf23 mean fold change from normal (Day 7): 2.21 fold | Top2a mean fold change from normal (Day 7): 5.58 fold | Tpx2 mean fold change from normal (Day 7): 2.93 fold | Tril mean fold change from normal (Day 7): 2.07 fold | Tsc22d1 mean fold change from normal (Day 7): 2.18 fold | Ttc36 mean fold change from normal (Day 7): 0.34 fold | Ttr mean fold change from normal (Day 7): 0.56 fold | Tyrobp mean fold change from normal (Day 7): 16.29 fold | Ugt3a1 mean fold change from normal (Day 7): 0.22 fold | Uhrf1 mean fold change from normal (Day 7): 3.81 fold | Upp2 mean fold change from normal (Day 7): 0.69 fold | Vcam1 mean fold change from normal (Day 7): 63.51 fold | Vill mean fold change from normal (Day 7): 0.20 fold | Vmn1r18 mean fold change from normal (Day 7): 0.27 fold | Vmn1r19 mean fold change from normal (Day 7): 0.73 fold | Vmn1r20 mean fold change from normal (Day 7): 0.27 fold | Vmn1r-ps11 mean fold change from normal (Day 7): 0.11 fold | Vstm2a mean fold change from normal (Day 7): 0.20 fold | Vtcn1 mean fold change from normal (Day 7): 15.70 fold | Vwce mean fold change from normal (Day 7): 1.03 fold | Wfdc15b mean fold change from normal (Day 7): 0.27 fold | Ybx2 mean fold change from normal (Day 7): 0.72 fold | 7SK RNA mean fold change from normal (Day 14): 1.35 fold | 2310042D19Rik mean fold change from normal (Day 14): 0.95 fold | 4930533I22Rik mean fold change from normal (Day 14): 0.74 fold | 4933417A18Rik mean fold change from normal (Day 14): 0.67 fold | 8430408G22Rik mean fold change from normal (Day 14): 0.79 fold | 9030619P08Rik mean fold change from normal (Day 14): 0.25 fold | Slc2a5 mean fold change from normal (Day 14): 0.99 fold | Slc4a1 mean fold change from normal (Day 14): 0.92 fold | Slc5a4a mean fold change from normal (Day 14): 1.06 fold | Slc5a12 mean fold change from normal (Day 14): 0.58 fold | Slc6a12 mean fold change from normal (Day 14): 0.77 fold | Slc7a13 mean fold change from normal (Day 14): 0.48 fold | Slc28a1 mean fold change from normal (Day 14): 0.55 fold | Slc34a1 mean fold change from normal (Day 14): 0.58 fold | Slc34a2 mean fold change from normal (Day 14): 4.10 fold | Slc34a3 mean fold change from normal (Day 14): 0.33 fold | Slc46a3 mean fold change from normal (Day 14): 0.53 fold | Slco1a1 mean fold change from normal (Day 14): 0.36 fold | Smoc2 mean fold change from normal (Day 14): 6.08 fold | Smpdl3b mean fold change from normal (Day 14): 19.27 fold | Snx31 mean fold change from normal (Day 14): 0.27 fold | Socs1 mean fold change from normal (Day 14): 36.18 fold | Sox4 mean fold change from normal (Day 14): 7.60 fold | Sox9 mean fold change from normal (Day 14): 8.17 fold | Spaca7 mean fold change from normal (Day 14): 11.81 fold | Spink6 mean fold change from normal (Day 14): 1.77 fold | Spp1 mean fold change from normal (Day 14): 10.75 fold | Spred3 mean fold change from normal (Day 14): 5.60 fold | Spsb1 mean fold change from normal (Day 14): 4.14 fold | Spt1c3 mean fold change from normal (Day 14): 0.68 fold | St8sia2 mean fold change from normal (Day 14): 2.02 fold | Stil mean fold change from normal (Day 14): 0.95 fold | Stk32a mean fold change from normal (Day 14): 1.64 fold | Stra6 mean fold change from normal (Day 14): 14.59 fold | Susd2 mean fold change from normal (Day 14): 0.51 fold | Sycn mean fold change from normal (Day 14): 0.22 fold | Synpr mean fold change from normal (Day 14): 0.18 fold | Sytl2 mean fold change from normal (Day 14): 6.72 fold | Tagln2 mean fold change from normal (Day 14): 2.37 fold | Tbx10 mean fold change from normal (Day 14): 0.44 fold | Timd2 mean fold change from normal (Day 14): 0.67 fold | Timp1 mean fold change from normal (Day 14): 61.27 fold | Tlr2 mean fold change from normal (Day 14): 7.34 fold | Tmem25 mean fold change from normal (Day 14): 0.53 fold | Tmem26 mean fold change from normal (Day 14): 0.49 fold | Tmem207 mean fold change from normal (Day 14): 1.20 fold | Tmsb10 mean fold change from normal (Day 14): 5.31 fold | Tnc mean fold change from normal (Day 14): 18.78 fold | Tnfaip3 mean fold change from normal (Day 14): 3.95 fold | Tnfrsf23 mean fold change from normal (Day 14): 1.75 fold | Top2a mean fold change from normal (Day 14): 3.30 fold | Tpx2 mean fold change from normal (Day 14): 2.69 fold | Tril mean fold change from normal (Day 14): 0.97 fold | Tsc22d1 mean fold change from normal (Day 14): 2.00 fold | Ttc36 mean fold change from normal (Day 14): 0.67 fold | Ttr mean fold change from normal (Day 14): 0.78 fold | Tyrobp mean fold change from normal (Day 14): 10.29 fold | Ugt3a1 mean fold change from normal (Day 14): 0.46 fold | Uhrf1 mean fold change from normal (Day 14): 3.48 fold | Upp2 mean fold change from normal (Day 14): 1.34 fold | Vcam1 mean fold change from normal (Day 14): 36.46 fold | Vill mean fold change from normal (Day 14): 0.36 fold | Vmn1r18 mean fold change from normal (Day 14): 0.87 fold | Vmn1r19 mean fold change from normal (Day 14): 1.04 fold | Vmn1r20 mean fold change from normal (Day 14): 0.79 fold | Vmn1r-ps11 mean fold change from normal (Day 14): 0.51 fold | Vstm2a mean fold change from normal (Day 14): 0.60 fold | Vtcn1 mean fold change from normal (Day 14): 7.44 fold | Vwce mean fold change from normal (Day 14): 0.85 fold | Wfdc15b mean fold change from normal (Day 14): 0.90 fold | Ybx2 mean fold change from normal (Day 14): 0.44 fold
